From patent US7368126B2, “Controlled release depot formulations” (priority 2002, dated 2008)
Counter-ions that a name gives are not always drawn.

How the values were obtained:
[1] = Solubility in water; type: physicochemical; conditions: DI water
[2] = cited from earlier work

concentration in deionized water at saturation [1]	Structure (SMILES)	reported solubility in water [2]
40000 µg/mL	CCCCN1CCCCC1C(=O)Nc1c(C)cccc1C (centres unmarked) [Bupivacaine hydrochloride]	
	CC(=O)OCC(COC(C)=O)OC(C)=O [triacetin]	7.17 grams in 100 ml of water
